The results in this text go back to US20200407398A1, “Short Proline-Rich Lipopeptide Potentiates Minocycline and Rifampicin Against Multidrug-and Extensively Drug-Resistant Pseudomonas Aeruginosa” (priority 2018, published 2020).

SMILES strings stand for the structures. Peptide text beside a SMILES is read from it. * marks the point of attachment. Lauroyl = CCCCCCCCCCCC(=O)*

Usually MIC stands for the lowest concentration found to suppress growth.

What all share (format): cell-based
The subject of data set [1] is pig erythrocytes. Summed up:
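Washed pig erythrocytes in PBS were mixed with 2-fold serial dilutions of peptide and incubated for 1 h at 37° C. Released hemoglobin in the supernatant was read at 570 nm, with PBS and 0.1% Triton X-100 as controls. MHC was the minimum concentration giving 5% hemolysis.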

Data set [2] relates to E. faecalis ATCC 29212. The method in brief:
(§1)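 MICs were determined by CLSI broth microdilution in Mueller-Hinton broth, using 2-fold serial dilutions and an inoculum of 5×10^5 CFU/mL. Plates were incubated 18 hours at 37° C. The MIC was the lowest concentration preventing visible turbidity, confirmed by absorbance at 590 nm.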

The subject of data set [3] is E. coli ATCC 25922. The method in brief:
as §1

Data set [4] relates to E. faecium ATCC 27270. Summed up:
as §1

Consider `CCCCCCCCCCCC(=O)N1CCC[C@H]1C(=O)N[C@@H](CCCNC(=N)N)C(=O)N1CCC[C@H]1C(=O)N[C@@H](CCCNC(=N)N)C(=O)N1CCC[C@H]1C(=O)N[C@@H](CCCNC(=N)N)C(=O)N1CCC[C@H]1C(N)=O` [Compound C12-PRP, CH3(CH2)10CO-PRPRPRP-NH2] (Lauroyl-PRPRPRP-NH2), for which, in data set [1], the “MHC (minimum concentration that resulted in 5% red blood cell hemolysis)” value was > 512 µg/mL. Also, the hemolysis in data set [1] (red cells of porcine, 512 μg/mL) was 4.6±0.2%. The MIC was >128 µg/mL in data set [2], >128 µg/mL in data set [3] and 128 µg/mL in data set [4].
